Entries after “also recorded” stand apart in the source; their conditions may differ.
What was measured:
C. elegans = assay: Worm respiration assay (Seahorse XF24); assay type: in vivo; settings: day 3 adult worms
Experimental: Worm Respiration Assays Oxygen consumption was measured using the Seahorse XF24 equipment (Seahorse Bioscience Inc., North Billerica, Mass.) as described in Yamamoto et al. Typically, 200 animals per conditions were recovered from NGM plates with M9 medium, washed three times in 2 mLM9 to eliminate residual bacteria, and resuspended in 500 μL M9 medium. Worms were transferred in 24-well standard Seahorse plates (#100777-004) (50 worms per well) and oxygen consumption was measured 6 times. Respiration rates were normalized to the number of worms in each individual well. NAD measurement by HPLC For NAD+ quantification, approximately 1000 worms were collected in M9 buffer, washed five times to remove residual bacteria and flash-frozen in liquid nitrogen and stored at −80° C. until analysis. Extraction was started by adding 250 μl of 1.6M perchloric acid on frozen samples, followed by extensive homogenization in a Qiagen tissuelyser, and centrifugation at 20.000 g for 15 min. The supernatant was recovered and neutralized with a 3M potassium carbonate solution. After centrifugation, 100 μl of supernatant was filtered and used for NAD measurement using an HPLC system (Agilent) with a Supelco LC-18-T column (Sigma), as described in Yoshino et al. (Yoshino, K. F. Mills, M. J. Yoon, S. Imai, Nicotinamide Mononucleotide, a Key NAD(+) Intermediate, Treats the Pathophysiology of Diet- and Age-Induced Diabetes in Mice. Cell Metab 14, 528 (2011)).

C57Bl/6J mice = assay: NAD+ metabolism in tissues after chronic NR feeding; assay type: in vivo
Experimental: mRNA and mtDNA Analysis. Total RNA was prepared using TRIzol (Invitrogen) according to the manufacturer's instructions. RNA was treated with DNase, and 2 μg of RNA was used for reverse transcription (RT). cDNA was purified on QIAquick PCR cleanup columns (Qiagen, Valencia, Calif., USA). 50× diluted cDNA was used for RT-quantitative PCR (RT-VCR) VCR) reactions (Bai et al., 2007). The RT-qPCR reactions were performed using the Light-Cycler system (Roche Applied Science) and a qPCR Supermix (Qiagen) with the primers for mice summarized in Table 1 and 4, and with the primers for worms summarized on Table 7. mtDNA quantification was performed as described (Lagouge et al., 2006) with the primers indicated in Table 2 and 5.
Immunoprecipitation, SDS-PAGE, Western Blotting. Cells were lysed in lysis buffer (50 mM Tris, […], EDTA 1 mM, NP40 1%, nicotinamide 5 mM, Na-butyrate 1 in M, protease inhibitors pH7.4). Proteins were separated by SDS-PAGE and transferred onto nitrocellulose membranes. The origin of the primary and secondary antibodies used can be found as supplemental experimental procedures. Reactions were developed by enhanced chemiluminescence (Amersham, Little Chalfont, UK), PGC-1α, FOXO1 and Ndufa9 acetylation levels were analyzed by immunoprecipitation from cellular or nuclear lysates of tissues with anti-PGC-1α (Millipore), anti-FOXO1 (Cell Signaling, Danvers, Mass., USA) and anti-Ndufa9 (Abcam) antibody followed by Western blot using an acetyl-lysine antibody (Cell Signaling) that was normalized to total PGC-1a/FOXO1/Ndufa9 levels (Lagouge et al., 2006; Rodgers et al., 2005). In HEK293T cells HA-tagged PGC-1α was overexpressed and was immunoprecipitated using an anti-HA. In C2C12 myotubes, FLAG-HA tagged PGC-1α was introduced through adenoviral delivery 2 days before treatments, then IP was performed using anti-FLAG antibody and samples were processed as described. All blots were quantified by densitometry using ImageJ software. Poly(ADP-Ribose) detection was performed as previously described with slight modifications (Bai et al., PARP-1 inhibition increases mitochondrial metabolism through SIRT1 activation. Cell Metab 13, 461-468. (2011)) Briefly, PAR was detected by using a monoclonal anti-PAR antibody (Alexis, Lausanne Switzerland) by Western blotting of total protein lysates, using either […] of total worm protein lysates, […] of liver protein lysate or 200 g of muscle total protein extracts. PGC-1 acetylation was determined using PGC-1 immunoprecipitates from 2 mg of protein extracts, as described in Canto et al. (Canto et al., AMPK regulates energy expenditure by modulating NAD+ metabolism and SIRT1 activity. Nature 458, 1056 (2009)).
NAD^+ NAM Determination. NAD^+ levels in cultured cells were determined using a commercial kit (Enzychrom™, BioAssays Systems, CA). For tissue samples NAD^+ and NAM levels were determined as described in (Sauve et al., 2005). In brief, to a weighed aliquot of frozen pulverized tissue we added as standards, ^18O-NAD^+ (typically 2.00 nmol) and ^18O-NAM (typically 2.00 nmol). 70 L of ice-cold 7% perchloric acid was then added and the sample was vortexed and sonicated three times, then centrifuged. Clear supernatant was removed and neutralized by additions of 3 M NaOH and 1 M phosphate buffer (pH=9), then centrifuged. Clear supernatant was injected onto HPLC C-18 column with 20 mM ammonium acetate eluent to separate NAD^+ and NAM from other cellular components, NAD^+ and NAM peaks (260 nm absorbance) were collected. Collections were lyophilized to dryness and subjected to MALDI-TOF analysis. For NAD^+ measurement, ratio of intensities for m/z=664 and 666 peaks, corresponding to ^16O- and ^18O-NAD^+ isotopomers, was multiplied by 2.00 nmol and then divided by tissue weight to determine NAD+ concentration in the sample. […]

NC(=O)c1ccc[n+]([C@@H]2O[C@H](CO)[C@@H](O)[C@H]2O)c1 [NR, nicotinamide riboside]
oxygen consumption (respiration) (C. elegans): increased respiration; also recorded: Oxygen consumption was increased
NAD+ levels in liver and muscle (C57Bl/6J mice; CD and HFD, chronic NR 400 mg/kg/day): increased NAD^+ levels
NAD+ in BAT (C57Bl/6J mice; chronic NR 400 mg/kg/day): higher in the BAT of NR-fed mice, but only on HFD
NAD+ levels in brain or white adipose tissue (WAT) (C57Bl/6J mice; chronic NR 400 mg/kg/day): but not in others, such as brain or white adipose tissue (WAT)
NADH levels in muscle (C57Bl/6J mice; gastrocnemius, HFD 16 weeks): largely diminished
nicotinamide (NAM) levels in muscle (C57Bl/6J mice; gastrocnemius, HFD 16 weeks): largely diminished
Nampt mRNA and protein levels (C57Bl/6J mice; quadriceps, HFD 16 weeks): levels were also similar
mRNA expression of NMNAT enzymes (C57Bl/6J mice; quadriceps, HFD 16 weeks): could not detect differences
